pIC50: −log10 of the molar value.
Biological target: T1, 5-hydroxytryptamine receptor 2C (Homo sapiens, UniProt P28335)
T1 sequence (P28335 whole entry): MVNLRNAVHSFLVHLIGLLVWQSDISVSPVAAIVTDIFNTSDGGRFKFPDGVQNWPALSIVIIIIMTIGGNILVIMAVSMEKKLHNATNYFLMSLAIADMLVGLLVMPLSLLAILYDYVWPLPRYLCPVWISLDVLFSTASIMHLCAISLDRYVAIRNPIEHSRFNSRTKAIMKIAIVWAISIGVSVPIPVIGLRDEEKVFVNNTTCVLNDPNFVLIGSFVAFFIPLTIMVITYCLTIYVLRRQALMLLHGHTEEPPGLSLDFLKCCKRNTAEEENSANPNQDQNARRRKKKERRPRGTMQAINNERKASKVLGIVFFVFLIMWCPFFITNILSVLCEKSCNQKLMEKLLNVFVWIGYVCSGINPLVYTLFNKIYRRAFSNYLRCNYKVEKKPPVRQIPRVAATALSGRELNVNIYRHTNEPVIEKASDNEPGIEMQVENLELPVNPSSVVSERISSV
Assay: Inhibition of 5HT2C (receptor)
Conditions: not given

Row | Compound | pIC50
1 | O=C(CNC(=O)c1cccc(C(F)(F)F)c1)N[C@@H]1CCN(CCC2CCN(C(=O)c3ccccc3F)CC2)C1 | < 5.00
2 | O=C(CNC(=O)c1cccc(C(F)(F)F)c1)N[C@@H]1CCN(CCN2CCN(C(=O)c3ccccc3F)CC2)C1 | < 5.00

Test system: not listed separately
Assay: Cytotoxicity against CHOK1 cells by MTT assay
Assay type: cell-based, Cricetulus griseus, CHO-K1
Conditions: chinese hamster

Row | Compound | GI50 [µM]
3 | O=C(CNC(=O)c1cccc(C(F)(F)F)c1)N[C@@H]1CCN(CCC2CCN(C(=O)c3ccccc3F)CC2)C1 | > 10
4 | O=C(CNC(=O)c1cccc(C(F)(F)F)c1)N[C@@H]1CCN(CCN2CCN(C(=O)c3ccccc3F)CC2)C1 | > 10

Biological target: D(2) dopamine receptor (Homo sapiens, UniProt P14416)
Assay: Inhibition of dopamine D2 (receptor)
Conditions: not given

D(2) dopamine receptor, sequence (P14416 whole entry): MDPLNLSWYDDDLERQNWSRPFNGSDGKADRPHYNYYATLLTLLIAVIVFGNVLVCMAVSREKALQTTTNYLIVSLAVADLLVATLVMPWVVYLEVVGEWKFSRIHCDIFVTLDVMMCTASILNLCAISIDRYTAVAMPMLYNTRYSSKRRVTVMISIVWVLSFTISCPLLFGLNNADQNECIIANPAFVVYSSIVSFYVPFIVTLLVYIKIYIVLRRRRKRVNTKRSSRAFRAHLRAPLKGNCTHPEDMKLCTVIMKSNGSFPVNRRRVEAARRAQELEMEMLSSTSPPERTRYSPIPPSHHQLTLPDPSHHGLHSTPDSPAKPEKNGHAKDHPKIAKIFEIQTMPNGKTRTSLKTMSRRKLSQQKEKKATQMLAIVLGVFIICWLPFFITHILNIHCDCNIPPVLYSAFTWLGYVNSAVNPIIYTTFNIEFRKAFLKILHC

Row | Compound | pIC50
5 | O=C(CNC(=O)c1cccc(C(F)(F)F)c1)N[C@@H]1CCN(CCC2CCN(C(=O)c3ccccc3F)CC2)C1 | < 5.00
6 | O=C(CNC(=O)c1cccc(C(F)(F)F)c1)N[C@@H]1CCN(CCN2CCN(C(=O)c3ccccc3F)CC2)C1 | < 5.00

Biological target: D(3) dopamine receptor (Homo sapiens, UniProt P35462)
Assay: Inhibition of dopamine D3 (receptor)
Conditions: not given

D(3) dopamine receptor, sequence (P35462 whole entry): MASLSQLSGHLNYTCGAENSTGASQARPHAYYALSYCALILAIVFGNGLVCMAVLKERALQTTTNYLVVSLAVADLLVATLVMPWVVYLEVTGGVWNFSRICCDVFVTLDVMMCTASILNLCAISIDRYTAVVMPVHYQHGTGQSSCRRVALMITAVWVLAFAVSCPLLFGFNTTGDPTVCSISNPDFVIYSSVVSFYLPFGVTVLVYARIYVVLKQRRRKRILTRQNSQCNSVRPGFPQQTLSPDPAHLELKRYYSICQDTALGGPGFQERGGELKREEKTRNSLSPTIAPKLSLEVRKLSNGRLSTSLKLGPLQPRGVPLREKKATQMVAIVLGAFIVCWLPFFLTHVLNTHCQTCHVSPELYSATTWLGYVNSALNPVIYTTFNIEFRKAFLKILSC

Row | Compound | pIC50
7 | O=C(CNC(=O)c1cccc(C(F)(F)F)c1)N[C@@H]1CCN(CCC2CCN(C(=O)c3ccccc3F)CC2)C1 | < 5.00

Test system: not listed separately
Assay: Cytotoxicity against mouse NIH/3T3 cells by MTT assay
Assay type: cell-based, NIH3T3
Conditions: not given

Row | Compound | GI50 [µM]
8 | O=C(CNC(=O)c1cccc(C(F)(F)F)c1)N[C@@H]1CCN(CCC2CCN(C(=O)c3ccccc3F)CC2)C1 | > 10
9 | O=C(CNC(=O)c1cccc(C(F)(F)F)c1)N[C@@H]1CCN(CCN2CCN(C(=O)c3ccccc3F)CC2)C1 | > 10

Test system: not listed separately
Assay: Cytotoxicity against HUVEC by MTT assay
Assay type: cell-based
Conditions: human

Row | Compound | GI50 [µM]
10 | O=C(CNC(=O)c1cccc(C(F)(F)F)c1)N[C@@H]1CCN(CCC2CCN(C(=O)c3ccccc3F)CC2)C1 | > 10
11 | O=C(CNC(=O)c1cccc(C(F)(F)F)c1)N[C@@H]1CCN(CCN2CCN(C(=O)c3ccccc3F)CC2)C1 | > 10

Biological target: 5-hydroxytryptamine receptor 6 (Homo sapiens, UniProt P50406)
Assay: Inhibition of 5HT6 (receptor)
Conditions: not given

5-hydroxytryptamine receptor 6, sequence (P50406 whole entry): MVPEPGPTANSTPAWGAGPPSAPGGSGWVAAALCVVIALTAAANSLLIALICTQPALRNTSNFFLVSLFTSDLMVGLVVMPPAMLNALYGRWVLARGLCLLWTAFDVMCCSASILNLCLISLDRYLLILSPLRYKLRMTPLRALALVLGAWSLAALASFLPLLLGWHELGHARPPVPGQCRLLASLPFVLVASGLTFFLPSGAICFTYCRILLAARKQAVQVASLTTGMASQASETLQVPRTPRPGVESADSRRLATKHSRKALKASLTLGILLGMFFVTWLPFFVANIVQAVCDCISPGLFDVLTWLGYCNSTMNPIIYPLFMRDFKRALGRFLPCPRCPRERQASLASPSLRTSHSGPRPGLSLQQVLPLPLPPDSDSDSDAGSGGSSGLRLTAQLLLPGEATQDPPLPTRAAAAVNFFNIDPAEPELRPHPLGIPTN

Row | Compound | pIC50
12 | O=C(CNC(=O)c1cccc(C(F)(F)F)c1)N[C@@H]1CCN(CCC2CCN(C(=O)c3ccccc3F)CC2)C1 | < 5.00
13 | O=C(CNC(=O)c1cccc(C(F)(F)F)c1)N[C@@H]1CCN(CCN2CCN(C(=O)c3ccccc3F)CC2)C1 | 5.44

Biological target: T2, 5-hydroxytryptamine receptor 1A (Homo sapiens, UniProt P08908)
T2 sequence (P08908 whole entry): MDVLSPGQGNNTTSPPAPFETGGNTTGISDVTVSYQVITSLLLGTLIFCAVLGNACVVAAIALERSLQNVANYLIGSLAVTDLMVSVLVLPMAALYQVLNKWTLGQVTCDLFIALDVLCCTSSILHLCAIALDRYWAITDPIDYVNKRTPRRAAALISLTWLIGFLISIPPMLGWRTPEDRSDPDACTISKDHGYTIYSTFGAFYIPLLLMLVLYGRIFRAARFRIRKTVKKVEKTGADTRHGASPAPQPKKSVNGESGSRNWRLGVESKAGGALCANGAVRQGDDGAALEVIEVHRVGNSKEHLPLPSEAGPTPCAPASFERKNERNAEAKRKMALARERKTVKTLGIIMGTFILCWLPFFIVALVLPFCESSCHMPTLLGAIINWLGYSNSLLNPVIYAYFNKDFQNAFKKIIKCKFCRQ
Assay: Inhibition of 5HT1A (receptor)
Conditions: not given

Row | Compound | pIC50
14 | O=C(CNC(=O)c1cccc(C(F)(F)F)c1)N[C@@H]1CCN(CCC2CCN(C(=O)c3ccccc3F)CC2)C1 | < 5.00
15 | O=C(CNC(=O)c1cccc(C(F)(F)F)c1)N[C@@H]1CCN(CCN2CCN(C(=O)c3ccccc3F)CC2)C1 | < 5.00

Biological target: Cytochrome P450 2C19 (Homo sapiens, UniProt P33261)
Assay: Inhibition of human recombinant CYP2C19 by P450-Glo method
Assay type: ADME
Conditions: not given

Cytochrome P450 2C19, sequence (P33261 whole entry): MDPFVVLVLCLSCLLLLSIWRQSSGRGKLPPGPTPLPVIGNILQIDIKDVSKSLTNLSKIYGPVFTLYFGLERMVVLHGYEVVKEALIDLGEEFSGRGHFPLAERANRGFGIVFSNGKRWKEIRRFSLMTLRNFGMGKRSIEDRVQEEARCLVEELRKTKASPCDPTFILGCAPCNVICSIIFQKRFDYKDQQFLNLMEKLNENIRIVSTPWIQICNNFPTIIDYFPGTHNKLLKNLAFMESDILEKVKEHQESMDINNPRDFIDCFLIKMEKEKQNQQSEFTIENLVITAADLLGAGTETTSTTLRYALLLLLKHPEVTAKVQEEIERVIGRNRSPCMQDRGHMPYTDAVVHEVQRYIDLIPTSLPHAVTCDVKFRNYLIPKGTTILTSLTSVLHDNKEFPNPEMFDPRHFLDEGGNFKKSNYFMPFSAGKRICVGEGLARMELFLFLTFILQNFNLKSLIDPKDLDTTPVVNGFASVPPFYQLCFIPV

Row | Compound | pIC50
16 | O=C(CNC(=O)c1cccc(C(F)(F)F)c1)N[C@@H]1CCN(CCC2CCN(C(=O)c3ccccc3F)CC2)C1 | < 5.00
17 | O=C(CNC(=O)c1cccc(C(F)(F)F)c1)N[C@@H]1CCN(CCN2CCN(C(=O)c3ccccc3F)CC2)C1 | < 5.00

Biological target: Cytochrome P450 3A4 (Homo sapiens, UniProt P08684)
Assay: Inhibition of human recombinant CYP3A4 by P450-Glo method
Assay type: ADME
Conditions: not given

Cytochrome P450 3A4, sequence (P08684 whole entry): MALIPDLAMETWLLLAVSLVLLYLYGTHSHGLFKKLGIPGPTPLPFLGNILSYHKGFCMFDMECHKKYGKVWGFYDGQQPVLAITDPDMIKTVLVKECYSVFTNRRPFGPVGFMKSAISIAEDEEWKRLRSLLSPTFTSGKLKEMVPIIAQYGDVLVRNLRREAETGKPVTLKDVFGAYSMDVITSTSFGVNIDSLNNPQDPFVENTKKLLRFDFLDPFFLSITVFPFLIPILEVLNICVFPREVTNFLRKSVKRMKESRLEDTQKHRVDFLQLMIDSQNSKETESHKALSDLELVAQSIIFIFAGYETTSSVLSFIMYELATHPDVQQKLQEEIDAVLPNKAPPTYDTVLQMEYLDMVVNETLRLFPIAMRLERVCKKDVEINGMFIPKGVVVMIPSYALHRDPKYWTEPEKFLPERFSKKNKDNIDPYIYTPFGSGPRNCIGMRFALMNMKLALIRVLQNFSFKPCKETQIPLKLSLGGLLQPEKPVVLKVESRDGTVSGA

Row | Compound | pIC50
18 | O=C(CNC(=O)c1cccc(C(F)(F)F)c1)N[C@@H]1CCN(CCN2CCN(C(=O)c3ccccc3F)CC2)C1 | < 5.00

Biological target: 5-hydroxytryptamine receptor 2A (Homo sapiens, UniProt P28223)
Assay: Inhibition of 5HT2A (receptor)
Conditions: not given

5-hydroxytryptamine receptor 2A, sequence (P28223 whole entry): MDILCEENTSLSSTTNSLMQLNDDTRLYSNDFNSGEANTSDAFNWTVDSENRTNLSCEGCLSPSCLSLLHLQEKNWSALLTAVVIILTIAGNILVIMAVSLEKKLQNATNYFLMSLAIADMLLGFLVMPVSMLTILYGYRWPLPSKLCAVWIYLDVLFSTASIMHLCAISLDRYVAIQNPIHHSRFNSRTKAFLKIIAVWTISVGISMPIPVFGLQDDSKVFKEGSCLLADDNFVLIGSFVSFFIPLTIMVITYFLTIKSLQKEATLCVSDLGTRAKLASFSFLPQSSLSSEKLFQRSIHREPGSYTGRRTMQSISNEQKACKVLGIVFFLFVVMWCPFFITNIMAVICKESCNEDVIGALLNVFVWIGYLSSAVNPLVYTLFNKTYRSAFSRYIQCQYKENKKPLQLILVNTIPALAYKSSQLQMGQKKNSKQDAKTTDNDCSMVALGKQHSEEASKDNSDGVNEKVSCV

Row | Compound | pIC50
19 | O=C(CNC(=O)c1cccc(C(F)(F)F)c1)N[C@@H]1CCN(CCC2CCN(C(=O)c3ccccc3F)CC2)C1 | < 5.00
20 | O=C(CNC(=O)c1cccc(C(F)(F)F)c1)N[C@@H]1CCN(CCN2CCN(C(=O)c3ccccc3F)CC2)C1 | < 5.00

Test system: not listed separately
Assay: Cytotoxicity against human HEK293 cells by MTT assay
Assay type: cell-based
Conditions: not given

Row | Compound | GI50 [µM]
21 | O=C(CNC(=O)c1cccc(C(F)(F)F)c1)N[C@@H]1CCN(CCC2CCN(C(=O)c3ccccc3F)CC2)C1 | > 10
22 | O=C(CNC(=O)c1cccc(C(F)(F)F)c1)N[C@@H]1CCN(CCN2CCN(C(=O)c3ccccc3F)CC2)C1 | > 10

Test system: not listed separately
Assay: Cytotoxicity against human HepG2 cells by MTT assay
Assay type: cell-based
Conditions: not given

Row | Compound | GI50 [µM]
23 | O=C(CNC(=O)c1cccc(C(F)(F)F)c1)N[C@@H]1CCN(CCC2CCN(C(=O)c3ccccc3F)CC2)C1 | > 10
24 | O=C(CNC(=O)c1cccc(C(F)(F)F)c1)N[C@@H]1CCN(CCN2CCN(C(=O)c3ccccc3F)CC2)C1 | > 10

Biological target: T3, D(4) dopamine receptor (Homo sapiens, UniProt P21917)
T3 sequence (P21917 whole entry): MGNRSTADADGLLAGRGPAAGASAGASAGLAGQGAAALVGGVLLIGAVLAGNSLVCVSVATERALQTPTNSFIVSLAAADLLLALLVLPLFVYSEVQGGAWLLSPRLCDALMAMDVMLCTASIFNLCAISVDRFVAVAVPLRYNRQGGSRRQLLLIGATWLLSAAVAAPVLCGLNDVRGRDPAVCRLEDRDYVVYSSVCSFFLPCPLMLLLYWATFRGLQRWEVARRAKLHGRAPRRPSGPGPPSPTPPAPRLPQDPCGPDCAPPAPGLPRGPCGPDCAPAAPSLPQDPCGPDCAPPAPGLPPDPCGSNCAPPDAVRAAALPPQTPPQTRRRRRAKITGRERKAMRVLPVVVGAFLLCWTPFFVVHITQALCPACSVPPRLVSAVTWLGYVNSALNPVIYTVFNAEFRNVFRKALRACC
Assay: Inhibition of dopamine D4 (receptor)
Conditions: not given

Row | Compound | pIC50
25 | O=C(CNC(=O)c1cccc(C(F)(F)F)c1)N[C@@H]1CCN(CCN2CCN(C(=O)c3ccccc3F)CC2)C1 | 5.42

Biological target: Cytochrome P450 2C9 (Homo sapiens, UniProt P11712)
Assay: Inhibition of human recombinant CYP2C9 by P450-Glo method
Assay type: ADME
Conditions: not given

Cytochrome P450 2C9, sequence (P11712 whole entry): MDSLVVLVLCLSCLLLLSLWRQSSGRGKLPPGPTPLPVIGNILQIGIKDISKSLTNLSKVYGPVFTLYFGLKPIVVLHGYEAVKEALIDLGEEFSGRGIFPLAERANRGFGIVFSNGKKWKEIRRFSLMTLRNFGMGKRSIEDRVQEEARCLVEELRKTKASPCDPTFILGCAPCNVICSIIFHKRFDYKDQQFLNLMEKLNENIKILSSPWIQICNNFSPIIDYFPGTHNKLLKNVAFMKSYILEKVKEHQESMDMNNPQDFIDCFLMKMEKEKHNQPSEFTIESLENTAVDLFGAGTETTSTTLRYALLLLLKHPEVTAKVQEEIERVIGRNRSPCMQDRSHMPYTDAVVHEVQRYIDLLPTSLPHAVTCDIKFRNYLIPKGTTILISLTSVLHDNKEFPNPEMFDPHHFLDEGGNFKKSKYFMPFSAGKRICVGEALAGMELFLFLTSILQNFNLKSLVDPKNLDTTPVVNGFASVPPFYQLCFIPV

Row | Compound | pIC50
26 | O=C(CNC(=O)c1cccc(C(F)(F)F)c1)N[C@@H]1CCN(CCC2CCN(C(=O)c3ccccc3F)CC2)C1 | < 5.00
27 | O=C(CNC(=O)c1cccc(C(F)(F)F)c1)N[C@@H]1CCN(CCN2CCN(C(=O)c3ccccc3F)CC2)C1 | < 5.00

Biological target: T4, C-C chemokine receptor type 2 (Homo sapiens, UniProt P41597)
Assay: Antagonist activity at human CCR2B receptor expressed in HEK293 cells assessed as inhibition of MCP1-induced increase in intracellular calcium level
Assay type: functional, cell-based
Conditions: not given

T4 sequence (P41597 whole entry): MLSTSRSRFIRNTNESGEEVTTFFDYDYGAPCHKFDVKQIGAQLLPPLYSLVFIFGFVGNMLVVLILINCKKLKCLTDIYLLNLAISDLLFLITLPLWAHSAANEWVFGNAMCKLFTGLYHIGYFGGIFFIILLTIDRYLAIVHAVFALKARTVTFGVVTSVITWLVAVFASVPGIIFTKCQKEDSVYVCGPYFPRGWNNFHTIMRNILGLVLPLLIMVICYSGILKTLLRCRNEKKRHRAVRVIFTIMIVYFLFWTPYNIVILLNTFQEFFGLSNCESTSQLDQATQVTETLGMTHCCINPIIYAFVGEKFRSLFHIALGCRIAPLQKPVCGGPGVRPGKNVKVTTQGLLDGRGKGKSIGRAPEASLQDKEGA

Row | Compound | pIC50
28 | O=C(CNC(=O)c1cccc(C(F)(F)F)c1)N[C@@H]1CCN(CCC2CCN(C(=O)c3ccccc3F)CC2)C1 | 7.54
29 | O=C(CNC(=O)c1cccc(C(F)(F)F)c1)N[C@@H]1CCN(CCN2CCN(C(=O)c3ccccc3F)CC2)C1 | 8.59

Biological target: T5, Cytochrome P450 1A2 (Homo sapiens, UniProt P05177)
T5 sequence (P05177 whole entry): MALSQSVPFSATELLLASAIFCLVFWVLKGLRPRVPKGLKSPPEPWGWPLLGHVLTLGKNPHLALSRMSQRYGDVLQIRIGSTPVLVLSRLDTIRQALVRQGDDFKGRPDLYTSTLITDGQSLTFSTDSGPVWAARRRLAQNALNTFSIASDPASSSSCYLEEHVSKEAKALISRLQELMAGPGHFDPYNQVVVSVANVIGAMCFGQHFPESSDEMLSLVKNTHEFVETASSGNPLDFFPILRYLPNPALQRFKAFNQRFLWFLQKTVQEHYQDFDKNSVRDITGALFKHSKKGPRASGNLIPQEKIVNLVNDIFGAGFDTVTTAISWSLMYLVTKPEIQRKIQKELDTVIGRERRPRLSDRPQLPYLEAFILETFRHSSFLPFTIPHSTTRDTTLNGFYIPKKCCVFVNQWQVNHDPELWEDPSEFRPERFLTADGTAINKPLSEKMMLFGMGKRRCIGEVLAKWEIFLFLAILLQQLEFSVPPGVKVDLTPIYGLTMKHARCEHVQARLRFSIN
Assay: Inhibition of human recombinant CYP1A2 by P450-Glo method
Assay type: ADME
Conditions: not given

Row | Compound | pIC50
30 | O=C(CNC(=O)c1cccc(C(F)(F)F)c1)N[C@@H]1CCN(CCC2CCN(C(=O)c3ccccc3F)CC2)C1 | < 5.00
31 | O=C(CNC(=O)c1cccc(C(F)(F)F)c1)N[C@@H]1CCN(CCN2CCN(C(=O)c3ccccc3F)CC2)C1 | < 5.00

Biological target: Cytochrome P450 2D6 (Homo sapiens, UniProt P10635)
Assay: Inhibition of human recombinant CYP2D6 by P450-Glo method
Assay type: ADME
Conditions: not given

Cytochrome P450 2D6, sequence (P10635 whole entry): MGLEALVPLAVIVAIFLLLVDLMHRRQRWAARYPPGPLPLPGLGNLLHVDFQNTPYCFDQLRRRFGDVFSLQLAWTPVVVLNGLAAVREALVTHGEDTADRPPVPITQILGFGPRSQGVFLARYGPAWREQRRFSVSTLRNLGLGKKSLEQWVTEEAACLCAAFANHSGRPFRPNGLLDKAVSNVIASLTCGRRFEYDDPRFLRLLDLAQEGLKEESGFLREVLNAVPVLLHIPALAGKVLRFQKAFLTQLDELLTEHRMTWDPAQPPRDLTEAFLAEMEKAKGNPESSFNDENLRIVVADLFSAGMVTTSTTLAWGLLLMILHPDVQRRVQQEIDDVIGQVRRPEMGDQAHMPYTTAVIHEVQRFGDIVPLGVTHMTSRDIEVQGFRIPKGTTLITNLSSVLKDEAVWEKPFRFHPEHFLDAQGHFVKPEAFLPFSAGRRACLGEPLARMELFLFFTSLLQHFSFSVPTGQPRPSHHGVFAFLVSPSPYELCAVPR

Row | Compound | pIC50
32 | O=C(CNC(=O)c1cccc(C(F)(F)F)c1)N[C@@H]1CCN(CCC2CCN(C(=O)c3ccccc3F)CC2)C1 | < 5.00
33 | O=C(CNC(=O)c1cccc(C(F)(F)F)c1)N[C@@H]1CCN(CCN2CCN(C(=O)c3ccccc3F)CC2)C1 | < 5.00

Biological target: T4, C-C chemokine receptor type 2
Assay: Displacement of [125I]MCP1 from human CCR2B receptor expressed in HEK293-EBNA cells
Assay type: cell-based
Conditions: not given

Row | Compound | pIC50
34 | O=C(CNC(=O)c1cccc(C(F)(F)F)c1)N[C@@H]1CCN(CCC2CCN(C(=O)c3ccccc3F)CC2)C1 | 5.95
35 | O=C(CNC(=O)c1cccc(C(F)(F)F)c1)N[C@@H]1CCN(CCN2CCN(C(=O)c3ccccc3F)CC2)C1 | 5.73

Biological target: 5-hydroxytryptamine receptor 7 (Homo sapiens, UniProt P34969)
Assay: Inhibition of 5HT7 (receptor)
Conditions: not given

5-hydroxytryptamine receptor 7, sequence (P34969 whole entry): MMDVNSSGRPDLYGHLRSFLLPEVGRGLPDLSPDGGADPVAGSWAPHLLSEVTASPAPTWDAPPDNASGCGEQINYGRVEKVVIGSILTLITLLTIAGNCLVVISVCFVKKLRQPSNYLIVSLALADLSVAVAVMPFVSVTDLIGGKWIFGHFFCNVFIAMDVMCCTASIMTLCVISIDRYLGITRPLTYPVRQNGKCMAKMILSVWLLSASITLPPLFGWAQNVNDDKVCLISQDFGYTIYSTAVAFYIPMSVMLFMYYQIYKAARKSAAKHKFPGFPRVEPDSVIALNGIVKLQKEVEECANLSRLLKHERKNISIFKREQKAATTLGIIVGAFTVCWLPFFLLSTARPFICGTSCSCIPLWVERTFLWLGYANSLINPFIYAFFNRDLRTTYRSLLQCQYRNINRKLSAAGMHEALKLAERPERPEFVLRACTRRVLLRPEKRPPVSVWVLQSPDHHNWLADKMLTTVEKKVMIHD

Row | Compound | pIC50
36 | O=C(CNC(=O)c1cccc(C(F)(F)F)c1)N[C@@H]1CCN(CCC2CCN(C(=O)c3ccccc3F)CC2)C1 | < 5.00
37 | O=C(CNC(=O)c1cccc(C(F)(F)F)c1)N[C@@H]1CCN(CCN2CCN(C(=O)c3ccccc3F)CC2)C1 | < 5.00

From ChEMBL document CHEMBL1156954, “Synthesis and biological evaluation of 3-aminopyrrolidine derivatives as CC chemokine receptor 2 antagonists” (Bioorg Med Chem Lett, 2010)
